Data: patent US7279321B2, “Methods for increasing the resistance of a host cell to aromatic carboxylic acids” (priority 2003, dated 2007)
In brackets after ≈: the same amount, converted by molar mass.

What was measured:
Format in all cases: cell-based
[1] = system: E. coli strain DPD2444 (yhcP::TN<Kan>); test: MIC, 2-fold dilutions, Vogel-Bonner medium with 0.4% glucose; conditions: Escherichia coli, read-out: MIC for pHCA
Source text: (§1) The yhcP::TN<Kan> was introduced into E. coli strain MG1655 (obtained from Prof. Douglas Berg, Washington University School of Medicine, St. Louis, […].) by P1clr100 Cm mediated transduction to kanamycin resistance using phage lysates of E. coli strain DPD2443. One of the resultant kanamycin resistant transductants was named DPD2444.

[2] = system: E. coli strain MG1655; test: as above; conditions: Escherichia coli, overnight at 37° C., read-out: MIC for pHCA
Source text: as §1

[3] = system: E. coli strain DPD3313 (MG1655 with pTrcHis2TOPO®/lacZ); test: pHCA MIC, 2-fold dilutions, Vogel-Bonner medium with 0.4% glucose; conditions: Escherichia coli, no IPTG, overnight at 37° C.
Description: (§2) The pHCA MICs for E. coli strains DPD3313 and DPD3314 were determined. […] IPTG was not added to the medium because the trc promoter has substantial activity in its absence.

[4] = system: E. coli strain DPD3314 (MG1655 with pDEW668, multicopy yhcRQP); test: as above
Description: as §2

[5] = system: E. coli DPD2444 (yhcP−); test: microbe, parasite or virus in culture
Description: (§3) Additional compounds were tested for growth inhibition of E. coli MG1655 (yhcP^+) and DPD2444 (yhcP^−) in Vogel-Bonner medium with glucose as the carbon source and with 0.01% tetrazolium violet added as an indicator of viability. A series of two-fold dilutions of each chemical was made to the wells of a clear 96-well microplate in 50 μl volume. To these wells was added 50 μl of an overnight culture in Vogel Bonner medium with glucose as a carbon source of either MG1655 or DPD2444 that had been previously diluted 500-fold into fresh medium. The plates were incubated at 37° C. without shaking for 16 to 18 hours. The purple color in each well was visually scored. A score of 4+ indicated full purple color equivalent to a no chemical control well. Scores of 3+, 2+, or 1+ indicated decreasing amounts of purple color. A score of − indicated the complete absence of color. The MIC was defined as the lowest tested concentration that gave complete absence of color. The rank of difference between strains was defined as the score of pigment color for E. coli MG1655 in wells containing the concentration of a given chemical at the MIC for DPD24444. When MG1655 had no color, the score was 0. When MG 1655 was scored at 1+, the score was 1, when scored at 2+, the score was 2, etc.

[6] = system: E. coli MG1655 (yhcP+); test: microbe, parasite or virus in culture
Description: as §3

[7] = system: E. coli strain DPD4055 (MG1655 with pTrcHis2TOPO®/lacZ); test: growth and CFU/ml in defined medium containing pHCA
Description: (§4) The plasmid pDEW668 (described in Example 2) that carries the E. coli yhcRQP pHCA efflux system was moved by transformation into E. coli strain MG1655 obtained from the American Type Culture Collection, Manassas, Va. (ATCC #700926. lot # 2660700) to form strain DPD4057. For a control, plasmid pTrcHis2TOPO®/lacZ was also put into the same host strain, making strain DPD4055. E. coli strains DPD4055 and DPD4057 were grown overnight at 37° C. in a defined medium made with 4 g/l (NH4)2SO4, 1.26 g/l KH2PO4, 2.42 g/l K2HPO4, 0.5 g/l MgSO4.7H2O, 30 mM MOPSO, pH 7.0, 1 mg/l thiamin, 50 mg/l citric acid, 7.5 mg/l CaCl2.2H2O, 25 mg/l FeSO4.7H2O, 1.95 mg/l ZnSO4.7H2O, 1.9 mg/l CuSO4.5H2O, 1.0 mg/l CoCl2.6H2O, 1.5 mg/l MnCl2.4H2O, 7.5 g/l glucose, and 25 μg/ml ampicillin. The next day, tubes with 1.0 ml of the same medium containing 7.5, 5.0, 3.3, 2.2, 1.5, or 0 g/l pHCA were inoculated with 10 μl of the overnight cultures. These tubes were grown at 37° C. on a roller drum in the dark for 1 to 2 days. At 21 hours after inoculation, the tube with 5.0 g/l pHCA inoculated with DPD4057 had visible growth. In contrast, strain DPD4055 had visible growth at 2.2 g/l pHCA, but not higher.
(§5) At 48 hours of incubation, the CFU/ml of the cultures growing in the presence of 7.5 g/l pHCA was determined by plating dilutions onto LB plates. Strain DPD4055 had 2×10^2 CFU/ml. Strain DPD4057 had 8×10^7 CFU/ml. The inoculum for each culture was 2×10^7 CFU/ml. […] In contrast, the culture carrying multicopy yhcRQP increased in CFU/ml.

[8] = system: E. coli strain DPD4057 (MG1655 with pDEW668, multicopy yhcRQP); test: as above
Description: as §4, §5

[9] = system: yhcP gene (co-transcribed with yhcQ and yhcR); test: expression of yhcP upon treatment of E. coli cells with aromatic carboxylic acids

SMILES: O=C(O)C=Cc1ccc(O)cc1 [pHCA, para-hydroxycinnamic acid]
- MIC [1]: 12 mM (≈ 1970 µg/mL)
- MIC [2]: 50 mM (≈ 8210 µg/mL)
- MIC [3]: 50 mM (≈ 8210 µg/mL)
- increased resistance to pHCA by multicopy expression of the yhcRQP operon ([4]; DPD3314 versus DPD3313): two-fold
- MIC ([4]; Escherichia coli, MG1655, read-out: MIC for pHCA): 100 mM (≈ 16400 µg/mL)
- MIC ([5]; Escherichia coli, read-out: MIC, DPD2444 (yhcP−)): 10 mM (≈ 1640 µg/mL)
- Fold Diff ([5]; MIC MG1655 versus MIC DPD2444): 4
- defined as substrate of the YhcP efflux pump by this genetic test ([5]; MIC difference at least 2-fold and rank at least 2): substrates of the YhcP efflux pump
- MIC ([6]; Escherichia coli, MG1655, read-out: MIC, MG1655 (yhcP+)): 40 mM (≈ 6570 µg/mL)
- Rank Diff ([6]; score of pigment color for MG1655 at the MIC for DPD2444 (0 = no color, 4 = full purple color)): 2
- effect of pHCA on the strain without the multicopy yhcRQP genes (in words) ([7]; 7.5 g/l pHCA, 48 hours): bactericidal effect
- CFU/ml of culture in the presence of pHCA ([7]; 7.5 g/l pHCA, 48 hours, DPD4055, inoculum 2×10^7 CFU/ml): 2×10^2 CFU/ml
- pHCA concentration with visible growth, but not higher ([7]; 21 hours after inoculation, defined medium, 37° C., DPD4055, tested 7.5, 5.0, 3.3, 2.2, 1.5 g/l): 2.2 g/l
- CFU/ml of culture in the presence of pHCA ([8]; 7.5 g/l pHCA, 48 hours, DPD4057, inoculum 2×10^7 CFU/ml): 8×10^7 CFU/ml
- pHCA concentration with visible growth ([8]; 21 hours after inoculation, defined medium, 37° C., DPD4057, tested 7.5, 5.0, 3.3, 2.2, 1.5 g/l): 5.0 g/l
- fold improvement in pHCA tolerance by multicopy expression of yhcRQP ([8]; DPD4057 versus DPD4055, 21 hours): 2.3 fold
- expression of the yhcP gene upon treatment of E. coli cells [9]: highly upregulated
